Assay results published in PMC3753236, “Glucocorticosteroids in Nano-Sterically Stabilized Liposomes Are Efficacious for Elimination of the Acute Symptoms of Experimental Cerebral Malaria” (PLoS ONE, 2013).

Legend:
[1] = system: inflammation-related genes (CCL5, CXCL9, CXCL10, ICAM-1, IFNγ, IL-4); test: Brain expression of inflammation-related genes by qPCR; type: in vivo, C57Bl/6 mice; conditions: day 9 p.i., treatment days 3, 5, 7, 9 p.i., relative to non-infected mice, normalized to HPRT
Protocol: For total RNA extraction, samples were homogenized in Tri-reagent (Sigma) and the homogenate separated into aqueous and organic phases by chloroform addition and centrifugation. RNA was precipitated from the aqueous phase by addition of isopropanol, washed with ethanol, and solubilized in UPW.
cDNA synthesis was performed using a High Capacity cDNA Reverse Transcription kit (Applied Biosystems, Warrington, UK). cDNA was amplified from 1 µg RNA from each sample with the addition of 2 µl Multiscribe™ reverse transcriptase (RT), 2 µl RNAse inhibitor, 4 µl random primers, 4 µl RT buffer, and 1.6 µl dNTP's according to the manufacturer's instructions for first-strand cDNA synthesis. UPW was added for a final sample volume of 20 µl. cDNA samples were stored at −20°C.
Real-time transcription-polymerase chain reaction (rtPCR) was carried out using Applied Biosystems' 9800 Fast Thermal Cycler. The reaction mix for rtPCR analysis consisted of 1 µl cDNA, 300 nM forward (f) and reverse (r) primers (Syntezza, Jerusalem, Israel), and 7.5 µl manufactured master mix buffer containing nucleotides, Taq polymerase, and SYBR Green (Applied Biosystems) in a total volume of 15 µl. Gene amplification included one stage of 10 min at 95°C followed by 40 cycles of a two-step loop: 20 s at 95°C, and 1 min at 60°C. The fold-change in gene expression was normalized to the endogenous gene hypoxanthine phosphoribosyltransferase (HPRT). […] Results were considered significant if the observed fold-change was at least ×2 relative to non-infected mice. Primer sequences (5′-3′) were as follows: CCL5: […] (f), […] (r); ICAM-1: […] (f); […] (r); IFN-γ: […] (f), […] (r); IL-4: […] (f), […] (r); CXCL9: […] (f), […] (r); CXCL10: […] (f), […] (f), […] (r).

[2] = system: PbAus-infected C57Bl/6 mice; test: Brain edema, Evans blue dye extravasation; type: in vivo; conditions: treatment days 3, 5, 7, 9 p.i.
Protocol: BBB disruption was assessed by quantifying Evans blue dye extravasation. 200 µl 2% (w/v) Evan's blue solution in PBS was injected i.v. to pre-warmed mice. After 2 h mice were anesthetized and perfused intracardially with ice-cold PBS. Brains were extracted, homogenized in 1 ml PBS, and centrifuged; the supernatant was read by spectrophotometry at 510 nm. Values were normalized to the values from the brains of non-infected mice similarly injected.

[3] = system: PbAus-infected C57Bl/6 mice; test: Brain hemorrhages, H&E staining; type: in vivo; conditions: treatment days 3, 5, 7, 9 p.i.
Protocol: H&E staining was performed by incubation of slides in Sigma's Accustain hematoxylin solution followed by staining in eosin solution (2% eosin, 1% phloxine and 0.5% acetic acid in 95% ethanol), and mounting in Hydromount (National Diagnostics, Cherry Hill, NJ, USA).

microglia = test: Microglial activation, IBA-1 immunohistology; type: in vivo, C57Bl/6 mice; conditions: IBA-1, normalized to non-infected mice
Protocol: (§1) Sections were thaw-mounted onto on poly-L-lysine-coated slides and stored at -80°C until use.
Slides were thawed by sequential incubation at −20°C and 5°C (10 minutes at each temperature) and incubated in blocking solution consisting of 20% of 5% BSA and 80% of 5% NGS, in a moist environment at room temperature (RT). After one hour the blocking solution was removed and sections incubated overnight at 5°C with primary antibody diluted 1∶200 in blocking solution. Microglia were stained using rabbit anti-mouse ionized calcium binding adaptor molecule 1 (IBA-1) (Wako Chemicals, Richmond, VA, USA); astrocytes were stained using rabbit anti-bovine glial fibrillary acidic protein (GFAP) (cross-reactive to mouse; LifeSpan Biosciences, Seattle, WA, USA). After washing in PBS, slides were incubated for one hour at RT with secondary antibody, Cy3-AffiniPure donkey anti-rabbit IgG H+L (diluted 1∶200 in PBS; Jackson Immunoresearch Laboratories, West Grove, PA, USA), followed by an additional wash. […] At least three sections per brain (6 fields each) were examined, and the total number of astrocytes and microglia counted. […] Images were visualized and analyzed with ImagePro analysis software: quantification of relative fluorescence was performed using the integrated optical density (IOD) parameter. […]

astrocytes = test: Astrocyte activation, GFAP immunohistology; type: in vivo, C57Bl/6 mice; conditions: for Astrocytes, normalized IOD: GFAP, normalized to non-infected mice
Protocol: as §1
Slides were thawed by sequential incubation at −20°C and 5°C (10 minutes at each temperature) and incubated in blocking solution consisting of 20% of 5% BSA and 80% of 5% NGS, in a moist environment at room temperature (RT). After one hour the blocking solution was removed and sections incubated overnight at 5°C with primary antibody diluted 1∶200 in blocking solution. Microglia were stained using rabbit anti-mouse ionized calcium binding adaptor molecule 1 (IBA-1) (Wako Chemicals, Richmond, VA, USA); astrocytes were stained using rabbit anti-bovine glial fibrillary acidic protein (GFAP) (cross-reactive to mouse; LifeSpan Biosciences, Seattle, WA, USA). After washing in PBS, slides were incubated for one hour at RT with secondary antibody, Cy3-AffiniPure donkey anti-rabbit IgG H+L (diluted 1∶200 in PBS; Jackson Immunoresearch Laboratories, West Grove, PA, USA), followed by an additional wash. After addition of 4′,6-diamidino-2-phenylindole (DAPI) in mounting solution (Dapi-Fluoromount-G, Southern Biotech, Birmingham, AL, USA) the slides were mounted with coverslips and examined by fluorescent microscopy. At least three sections per brain (6 fields each) were examined, and the total number of astrocytes and microglia counted. High-resolution images of stained slides were photographed using a laser confocal scanning microscope. Images were visualized and analyzed with ImagePro analysis software: quantification of relative fluorescence was performed using the integrated optical density (IOD) parameter. IOD values of infected non-treated or treated mice were normalized to non-infected mouse values.

[4] = other disease models; ref [5]; cited from earlier work

SMILES: C[C@H]1C[C@H]2[C@@H]3CCC4=CC(=O)C=C[C@]4(C)[C@@]3(F)[C@@H](O)C[C@]2(C)[C@@]1(O)C(=O)COC(=O)CCC(=O)O [BMS, β-methasone hemisuccinate]
- CCL5 relative expression ± SEM [1]: 45.7±7.6
- CXCL9 relative expression ± SEM [1]: 39.3±11.1
- CXCL10 relative expression ± SEM [1]: 18.2±2.4
- ICAM-1 relative expression ± SEM [1]: 3.3±0.7
- IFNγ relative expression ± SEM [1]: 105.1±37.7
- IL-4 relative expression ± SEM [1]: 1.5±0.3
- Edema, ng Evan's blue/brain ([2]; day 5 p.i.): 263±95 ng Evan's blue/brain
- Edema, ng Evan's blue/brain ([2]; day 9 p.i.): 263±6 ng Evan's blue/brain
- Number of hemorrhages ([3]; day 5 p.i.): 9±1
- Number of hemorrhages ([3]; day 9 p.i.): 9±2
- Microglia, normalized IOD (microglia; day 5 p.i.): 12±1
- Microglia, normalized IOD (microglia; day 9 p.i.): 10±0.05
- Astrocytes, normalized IOD (astrocytes; day 5 p.i.): 1.7±0.9
- Astrocytes, normalized IOD (astrocytes; day 9 p.i.): 1.1±0.1
- Astrocyte number of primary processes (astrocytes; day 9 p.i., n = 23, 18 cells): 10±2
- Potency of BMS relative to MPS [4]: five
